Data reported in patent US7579369B2, “CB 1 receptor inverse agonists” (Hoffmann-La Roche Inc., priority 2003, dated 2009).

Molecular target: T1, human cannabis CB1 receptor (Homo sapiens, UniProt P21554)
T1 construct: expressed in transfected cells; host or cells: human embryonic kidney (HEK) cells, Semliki Forest Virus system, membrane preparation
Test: Affinity for cannabinoid CB1 receptors, [3H]-CP-55,940 radioligand binding on HEK cell membranes
Details: affinity for the CB1 receptor
Procedure: The affinity of the compounds of the invention for cannabinoid CB1 receptors was determined using membrane preparations of human embryonic kidney (HEK) cells in which the human cannabis CB1 receptor is transiently transfected using the Semliki Forest Virus system in conjunction with [3H]-CP-55,940 as radioligand. After incubation of a freshly prepared cell membrane preparation with the [3H]-ligand, with or without addition of compounds of the invention, separation of bound and free ligand was performed by filtration over glassfiber filters. Radioactivity on the filter was measured by liquid scintillation counting.
The compounds of formula (I) show an excellent affinity for the CB1 receptor, determined with the experimental conditions described in Devane et. al. Mol. Pharmacol. 34 (1988) 605-613.

T1 sequence (P21554 whole entry): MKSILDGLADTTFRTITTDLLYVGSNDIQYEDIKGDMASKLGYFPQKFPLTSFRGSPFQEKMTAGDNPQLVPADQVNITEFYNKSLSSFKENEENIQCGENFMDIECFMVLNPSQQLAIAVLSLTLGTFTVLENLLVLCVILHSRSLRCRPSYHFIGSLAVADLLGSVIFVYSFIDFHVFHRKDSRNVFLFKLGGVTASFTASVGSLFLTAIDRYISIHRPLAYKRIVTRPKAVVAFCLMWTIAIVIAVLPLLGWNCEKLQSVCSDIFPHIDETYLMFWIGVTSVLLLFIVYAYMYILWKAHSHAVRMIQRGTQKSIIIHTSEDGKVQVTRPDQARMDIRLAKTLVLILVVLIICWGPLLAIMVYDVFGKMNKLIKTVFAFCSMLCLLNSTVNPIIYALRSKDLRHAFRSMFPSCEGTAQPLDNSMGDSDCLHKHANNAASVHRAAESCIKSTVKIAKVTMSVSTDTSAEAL

Cc1c(C(=O)NC2CCCCC2)cc(-c2cc(C(F)(F)F)ccc2Cl)n1C[C@H]1CCCC[C@H]1O (racemic) [Example 294, 5-(2-Chloro-5-trifluoromethyl-phenyl)-1-((1RS,2RS)-2-hydroxy-cyclohexylmethyl)-2-methyl-1H-pyrrole-3-carboxylic acid cyclohexylamide]
IC50: < 2000 nM

COc1ccc(Cl)cc1-c1cc(C(=O)NC2CCCCC2)c(C)n1CC1CCCCC1 [Example 89, 5-(5-Chloro-2-methoxy-phenyl)-1-cyclohexylmethyl-2-methyl-1H-pyrrole-3-carboxylic acid cyclohexylamide]
IC50: < 2000 nM

Cc1ccc(C(F)(F)F)cc1-c1cc(C(=O)N[C@@H]2CCCC[C@H]2O)c(C)n1CC1CCCCC1 [Example 301, Cyclohexylmethyl-2-methyl-5-(2-methyl-5-trifluoromethyl-phenyl)-1H-pyrrole-3-carboxylic acid ((1R,2R)-2-hydroxy-cyclohexyl)-amide]
IC50: < 2000 nM

Cc1c(C(=O)NC2CCCCC2)cc(-c2cc(C(F)(F)F)ccc2F)n1C[C@@H]1CCCC[C@H]1O (racemic) [Example 282, 5-(2-Fluoro-5-trifluoromethyl-phenyl)-1-((1SR,2RS)-2-hydroxy-cyclohexylmethyl)-2-methyl-1H-pyrrole-3-carboxylic acid cyclohexylamide]
IC50: < 2000 nM

COc1cc(C)c(Cl)cc1-c1cc(C(=O)NC2CCCCC2)c(C)n1CC1CCCCC1 [Example 91, 5-(5-Chloro-2-methoxy-4-methyl-phenyl)-1-cyclohexylmethyl-2-methyl-1H-pyrrole-3-carboxylic acid cyclohexylamide]
IC50: < 2000 nM

COc1ccccc1-c1nc(C(=O)NN2CCCCC2)c(C)n1CC1CCCCC1 [Example 54, Cyclohexylmethyl-2-(2-methoxy-phenyl)-5-methyl-1H-imidazole-4-carboxylic acid piperidin-1-ylamide]
IC50: < 2000 nM

CCCCNC(=O)c1cc(-c2cc(OC)ccc2OC)n(CC2CCCCC2)c1C [Example 21, Cyclohexylmethyl-5-(2,5-dimethoxy-phenyl)-2-methyl-1H-pyrrole-3-carboxylic acid butylamide]
IC50: < 2000 nM

Cc1c(C(=O)NC2CCCCC2)cc(-c2cc(C(F)(F)F)ccc2F)n1C[C@H]1CCCC[C@H]1O (racemic) [Example 283, 5-(2-Fluoro-5-trifluoromethyl-phenyl)-1-((1RS,2RS)-2-hydroxy-cyclohexylmethyl)-2-methyl-1H-pyrrole-3-carboxylic acid cyclohexylamide]
IC50: < 2000 nM

Cc1c(C(=O)N[C@@H]2CCCC[C@H]2O)cc(-c2cc(C(F)(F)F)ccc2C(F)(F)F)n1CCC1CC1 [Example 290, 5-(2,5-Bis-trifluoromethyl-phenyl)-1-(2-cyclopropyl-ethyl)-2-methyl-1H-pyrrole-3-carboxylic acid ((1R,2R)-2-hydroxy-cyclohexyl)-amide]
IC50: < 2000 nM

CCCCNC(=O)c1cc(-c2ccc(N3CCCC3)cc2)n(CC2CCCCC2)c1C [Example 19, Cyclohexylmethyl-2-methyl-5-(4-pyrrolidin-1-yl-phenyl)-1H-pyrrole-3-carboxylic acid butylamide]
IC50: < 2000 nM

Cc1c(C(=O)NN2CCCCC2)cc(-c2cc(C(F)(F)F)ccc2Cl)n1CC1CCCCC1 [Example 264, 5-(2-Chloro-5-trifluoromethyl-phenyl)-1-cyclohexylmethyl-2-methyl-1H-pyrrole-3-carboxylic acid piperidin-1-ylamide]
IC50: < 2000 nM

COc1ccc(F)cc1-c1cc(C(=O)NC2CCCCC2)c(C)n1CC1CC1 [Example 194, Cyclopropylmethyl-5-(5-fluoro-2-methoxy-phenyl)-2-methyl-1H-pyrrole-3-carboxylic acid cyclohexylamide]
IC50: < 2000 nM

CCCCNC(=O)c1cc(-c2cc(C(F)(F)F)cc(C(F)(F)F)c2)n(CC2CCCCC2)c1C [Example 41, 5-(3,5-Bis-trifluoromethyl-phenyl)-1-cyclohexylmethyl-2-methyl-1H-pyrrole-3-carboxylic acid butylamide]
IC50: < 2000 nM

CCCCNC(=O)c1nc(-c2ccccc2OC)n(CC2CCCCC2)c1C [Example 52, Cyclohexylmethyl-2-(2-methoxy-phenyl)-5-methyl-1H-imidazole-4-carboxylic acid butylamide]
IC50: < 2000 nM

Cc1c(C(=O)N[C@@H]2CCCC[C@H]2O)cc(-c2cc(C(F)(F)F)ccc2F)n1CC1CCCCC1O (mixture of isomers) [Example 286]
IC50: < 2000 nM
